Like-named read-outs stand apart in the source and are kept apart here.

Assay [1] deals with wheat selection FS4 and Fidel. Briefly: Field Trial II. The assay is classed as in vivo. The following applies: for effect on final plant height: resistant selection FS4, postemergent, six weeks after treatment.
In assay [2] the test system is wheat seed of the susceptible cultivar Fidel. Briefly: Pre-emergence herbicide application, rate finding. The assay is classed as in vivo. The following applies: visual toxicity after three to four weeks.
Protocol: A series of experiments is performed to determine the appropriate herbicide rate for this pre-emergent spray treatment. Wheat seed of the susceptible cultivar Fidel is planted in Metro Mix 350™ in 6×8 inch peat flats at a rate of 100 seeds per flat. The flats are watered prior to herbicide treatment. Three flats are sprayed per treatment. The herbicides are applied with a laboratory belt sprayer at a rate of 950 liters per hectare (L/ha) at a belt speed of 12.8 sec/rev using sprayer nozzle #40015E (Teejet™ Spraying Systems). After three to four weeks, the treatments are evaluated by visual observation for toxicity to the wheat seeds/seedlings.
Another assay has as its system wheat seeds. Briefly: Seed soak screen (Example 1, Step 1, Experiments 1-4). As to conditions: for herbicide concentration necessary for lethality: seed soak; for seedling appearance versus controls: by three to four weeks. The format is in vivo. The method, then:
The seeds are rinsed in sterile distilled water and then soaked in a herbicide concentration for a set period of time, as described below. Sets of twenty-five seeds are placed into 25 ml of the herbicide solution described below in a sterile 100×15 mm plastic petri dish and soaked for the designated time. The seeds are rinsed with water, dried with paper towels and planted (25 seeds/flat) approximately ½″ deep in 6×8 inch peat flats containing a moist, sterile, artificial soil, Metro Mix 350™ (Grace Company, Cambridge, Mass.). The treatments are evaluated at four weeks after treatment. The herbicides, rates and time periods evaluated are described below:
Each treatment is replicated four times.
Each treatment is replicated two times.
The protocol is as described above except that 35 seeds are soaked per petri dish; 25 seeds are still planted per flat. This experiment is repeated twice.

Assay [3] has as its system wheat variety Fidel and resistant selections FS2 and FS4. Briefly: Preemergence Herbicide Tolerance. The format is in vivo. As to conditions: pre-emergence application; plant growth after four weeks; versus Fidel.
Assay [4] has as its system mutant wheat selections FS1-FS4 and Fidel. The format is in vivo. An excerpt:
This greenhouse test examines the level and spectrum of herbicide resistance of the mutant selections at the whole plant level. […] These lines are bulked according to their parental lines: FS1, FS2, FS3 and FS4. Fidel (wild-type) is used is a control and for performance comparison purposes. Five seeds from each of these lines (including Fidel) are planted per pot in six inch Azalea pots and are later thinned to three plants per pot. Three replicates are used per treatment (chemical and rate) for each line, and six replicates per wheat line are used as untreated controls. Plants are sprayed postemergence, 10 days after planting, with the following herbicides and rates: […]

The test system of assay [5] is wheat selections FS2 and FS4 and Fidel. Briefly: Postemergence Herbicide Tolerance, upper limits. The assay is classed as in vivo. The following applies: four weeks after treatment. From the text:
In this second greenhouse test, the upper limits of the mutant selections' resistance to postemergent applications of PURSUIT™ and Compound 2 are examined. M4 seed of two of the mutant selections, FS2 and FS4, and seed of Fidel are used in this experiment. Five seeds from each line are planted per pot in sterile Metro Mix 350™ in six inch Azalea pots. Immediately prior to herbicide treatment, these plants are thinned to three plants per pot. Three replicates are used per treatment (chemical & rate) for each line, and six replicates per wheat line are used as untreated controls. The plants are sprayed postemergence, 10 days after planting, with the following herbicides and rates (g/ha):
The herbicides are applied as previously described. Plant height is measured immediately prior to spraying. Plant heights are also measured at two and four weeks after treatment, and shoot fresh weights measured at seven weeks after treatment.

The test system of assay [6] is mutant wheat selection FS2 and Fidel. Briefly: M3-M4 Wheat Herbicide Resistance Spectrum. The format is in vivo. The following applies: FS2 versus Fidel; postemergence. An excerpt:
In this experiment, the tolerance of imidazolinone-resistant wheat to three sulfonylurea herbicides (BEACON™, CLASSIC™ and OUST™ (BEACON™ is a registered trademark of Ciba-Geigy and is 2-[4,6-bis-(difluoro-methoxy)-pyrimidin-2-ylcarbamoylsulfamoyl]benzoic acid; CLASSIC™ is a registered trademark of E.I. du Pont de Nemours and Company and is the ethyl ester of o-[[(4-chloro-6-methoxy-2-pyrimidinyl)-carbamoyl]-sulfamoyl]-benzoic acid), a sulfamoylurea herbicide (Compound 3), a sulfonylcarboxamide (Compound 1), and an imidazolinone herbicide (Compound 7, which is 3-(4-isopropyl-4-methyl-5-oxo-2-imidazolin-2-yl)-2-methyl-crotonic acid), is examined to look for cross-tolerance to AHAS-inhibiting herbicides other than the imidazolinones. […] Each treatment consists of three replicates. In addition, there are six replicates each of FS2 and Fidel which are used as untreated controls. Plants are sprayed postemergence, 7 days after planting, with the following herbicides and rates:
The herbicides are applied as previously described. Plants are rated at two, three and four weeks after treatment with herbicide.

For assay [7] the test system is unchanged. As to conditions: FS2 versus Fidel; postemergence. From the text:
In a second experiment, the mutant wheat selection, FS2, from bulked M3-M4 seed, and Fidel seed are planted in 6″ Azalea pots in sterile Metro Mix 350™. Three seeds are planted per pot initially; these are subsequently thinned to two plants. There are three replicates of each treatment. In addition, the untreated controls consist of 15 replicates each of Fidel and FS2. Plants are sprayed postemergence, 12 days after planting, with the following herbicides and rates: […]

Assay [8] deals with AHAS (acetohydroxyacid synthase). Briefly: AHAS Enzyme Assay I and II (M4 Plants). As to conditions: mutant selections; level lower than that for PURSUIT. The assay is classed as biochemical, wheat. The procedure: Enzyme Extraction: For the extraction of AHAS, 10 grams of tissue are powdered in liquid nitrogen and then homogenized in 100 mM potassium phosphate buffer (pH 7.5) containing 10 mM pyruvate, 5 mM MgCl2, 5 uM EDTA, 100 uM FAD, 1 mM valine, 1 mM leucine, 10% glycerol, and 10 mM cysteine. The homogenate is filtered through a nylon cloth (53 uM mesh) and centrifuged at 25,000 g for 20 minutes. The supernatant fraction is brought to 50% saturation with respect to (NH4)2SO4 and allowed to stand for 20-30 minutes on ice. It is then centrifuged at 25,000 g for 20 minutes and the supernatant is discarded. The ammonium sulfate pellet is dissolved in 50 mM potassium phosphate buffer (pH 7.5) containing 1 mM EDTA and 100 mM NaCl and used for the assay procedures.
AHAS Assay: AHAS activity is measured by estimation of the product, acetolactate, after conversion by decarboxylation in the presence of acid to acetoin. Standard reaction mixtures contain the enzyme in 50 mM potassium phosphate buffer (pH 7.0) containing 100 mM sodium pyruvate, 10 mM MgCl2, 1 mM thiamine pyrophosphate, and 10 uM FAD. This mixture is incubated at 37° C. for one hour after which time the reaction is stopped with the addition of […] to make a final concentration of 0.85% […] in the tube. The reaction product is allowed to decarboxylate at 60° C. for 15 minutes. The acetoin formed is determined by incubating with creatine (0.17%) and 1-napthol (1.7% in 4N NaOH) by the method of Westerfield (Westerfield, W. W., J. Biol. Chem., 161, 495-502 (1945)). Maximum color is observed by incubation at 60° C. for 15 minutes and then further incubation at room temperature for 15 minutes. The absorption of color complex is measured at 520 nm. Appropriate checks of direct acetoin formation during the enzyme assay are made. Each assay is run at least in duplicate and the experiments are repeated a minimum of two times.
Herbicide Application: Two flats are planted with approximately 100 seeds of each wheat selection (FS1, FS2, and FS4) and Fidel in sterile Metro Mix 350. Ten days later, each flat is sprayed postemergence with 62.5 g/ha of PURSUIT™. The spray delivery rate is 400 L/ha with a belt speed of 8.2 sec/rev using nozzle #65015E. Tween 20™ is used as a surfactant at 0.25% v/v. The plants are harvested three days later and assayed for AHAS activity.
Enzyme Extraction and AHAS Assay: As previously described.
Herbicide Application: As described above (Enzyme Assay I) except that the spray delivery rate is 950 l/ha with a belt speed of 12.8 sec/rev using nozzle #40015E.

The mark [9] stands for this setting: mutant wheat FS1-FS4, postemergence, plant growth four weeks after treatment.

Take `COc1cc(OC)nc(NC(=O)NS(=O)(=O)c2ncccc2C(=O)N(C)C)n1` [ACCENT, 1-(4,6-dimethoxypyrimidin-2-yl)-3-(3-dimethylcarbamoyl-2-pyridylsulfonyl)urea]: in assay [1] (FS4, after three weeks), the cross resistance result is listed as “no cross resistance”. In addition, the “tolerance of the resistant wheat” value in [1] (FS4, postemergent 20 and 40 g/ha) is reported as “little or no tolerance”. The grain yield result in assay [1] (both the resistant and susceptible Fidel, yields 10 weeks after treatment) was “little or no grain yield”.
In the case of `CC(C)C1(C)N=C(c2ncccc2C(=O)O)NC1=O` (centres unmarked) [ARSENAL, 2-(4-isopropyl-4-methyl-5-oxo-2-imidazolin-2-yl)-nicotinic acid], the “most effective rate, pre-emergent spray” value in assay [2] was 40-50 g/ha. In the assay with wheat seeds (seed soak 1-500 uM for 48 hours, Experiment 1), the “effect on seed germination and seedling growth” value is “inhibits seed germination and seedling growth with increasing concentration”. Further, the seedling growth result in the assay with wheat seeds (seed soak 100 and 500 uM for 48 hours) is reported as “totally inhibit seedling growth”. Further, the “herbicide concentration necessary for lethality” value was determined as 50 µM in the assay on wheat seeds (exposure greater than 72 hours) and 75 µM in the assay with wheat seeds (length of exposure less than 72 hours). The “increased tolerance of FS2 and FS4” value in assay [3] is “approximately 8 fold”. In assay [4] (setting [9]), the “rate to which the mutant wheat is resistant” value is given as “more than 48 g/ha”.
In the case of `Cc1cnc(C2=NC(C)(C(C)C)C(=O)N2)c(C(=O)O)c1` (centres unmarked) [CADRE, 2-(4-isopropyl-4-methyl-5-oxo-2-imidazolin-2-yl)-5-methylnicotinic acid], the “effect on final plant height” value in assay [1] is given as “no effect”.
Regarding `CC(=O)NC(C)(C(=O)NS(=O)(=O)c1ccc(Cl)cc1)C(C)C` (centres unmarked) [Compound 1, 2-acetamido-N-[(p-chlorophenyl)sulfonyl]-2,3-dimethyl-butyramide], the “inhibitory effect on seed germination or seedling growth” value in the assay with wheat seeds (seed soak 500-2000 uM for 48, 72 or 96 hours) was “does not have an inhibitory effect on either seed germination or seedling growth”.
Regarding `COCc1cnc(C2=NC(C)(C(C)C)C(=O)N2)c(C(=O)O)c1` (centres unmarked) [Compound 2, 2-(4-isopropyl-4-methyl-5-oxo-2-imidazolin-2-yl)-5-(methoxymethyl)-nicotinic acid], the “effect on final plant height” value in [1] is listed as “no effect”. Besides, the “rates up to which FS2 and FS4 plant heights equal the untreated controls” value in assay [5] was 25-50 g/ha. Moreover, the “rate to which the mutant wheat is resistant” value in assay [4] (setting [9]) is listed as “more than 80 g/ha”. Further, in assay [4] (mutant wheat FS1-FS4 versus Fidel, postemergence, four weeks after treatment), the “increased tolerance of mutant wheat” value is reported as roughly 16 fold.
On to `C/C(C(=O)O)=C(\C)C1=NC(C)(C(C)C)C(=O)N1` (centres unmarked) [Compound 7, 3-(4-isopropyl-4-methyl-5-oxo-2-imidazolin-2-yl)-2-methyl-crotonic acid], for which, in assay [6], the resistance entry was “greater than 10 fold”.
On to `COC(OC)c1cnc(C2=NC(C)(C(C)C)C(=O)N2)c(C(=O)O)c1` (centres unmarked) [Compound 8, 5-formyl-2-(4-isopropyl-4-methyl-5-oxo-2-imidazolin-2-yl)-nicotinic acid, 5-(dimethylacetal)], for which the “effect on final plant height” value in [1] is listed as “no effect”.
As to `COC(=O)c1ccccc1S(=O)(=O)NC(=O)Nc1nc(C)cc(C)n1` [OUST, methyl ester of o-[[3-(4,6-dimethylpyrimidin-2-yl)ureido]sulfonyl]-benzoic acid], in [7], the “increased tolerance of the resistant wheat” value is given as 2-4 fold. Also, the “resistance of AHAS activity to inhibition” value in assay [8] is “Some resistance”. Besides, in [4] (in vivo), the “increased tolerance of mutant wheat” value is recorded as roughly 2 fold and the “rate to which the mutant wheat is resistant” value was “more than 5 g/ha”.
Consider `CC(C)C1(C)N=C(c2nc3ccccc3cc2C(=O)O)NC1=O` (centres unmarked) [SCEPTER, 2-(4-isopropyl-4-methyl-5-oxo-2-imidazolin-2-yl)-3-quinolinecarboxylic acid], for which the entries for the “seedling appearance versus controls” value in the assay with wheat seeds (seed soak 500 uM for 48 hours) and in the assay with wheat seeds (seed soak 1-100 uM for 48 hours) were “slightly shorter than controls” and “indistinguishable from controls”, respectively. For the same compound, in the assay on wheat seeds (seed soak maximum 1000 uM for 48 hours, Experiment 2), the “prevention of escapes (false positives)” value is recorded as “still not high enough to prevent “escapes””. The “resistance of AHAS activity to inhibition” value in [8] is given as “Some resistance”.

The record behind these values is patent US7034208B1, “Ahas inhibiting herbicide resistant wheat and method for selection thereof” (BASF Aktiengellschaft, priority 1991, dated 2006).
